Test results published in patent US7531162B2, “Transcobalamin receptor binding conjugates useful for treating abnormal cellular proliferation” (Mayo Foundation for Medical Education and Research, priority 2000, dated 2009).

Tests used:
[1] = Deprez-Decampaneere et al. 1978; cited from earlier work
Intrinsic Factor (IF) = assay: modified intrinsic factor blocking antibody (IFBA) assay, competition with Co-57-cyanocobalamin; format: binding; conditions: for binding to IF in the IFBA assay (in words): competition with Co-57 cyanocobalamin, compared with negative reference; for averaged percent binding to IF: non-labeled solution (1000 μg/10 mL saline, 1 μL) preincubated with purified IF, then Co-57-cyanocobalamin, average over five patients' runs, estimated from counts vs Clinical run
Procedure: (§1) Under dim light, 1000 μg of the non-labeled methyl-, adenosyl-, and cyanocobalamin-b-(4-aminobutyl)amide-DTPA, as well as 1000 μg of cyanocobalamin and DTPA (Sigma, St. Louis, Mo. 63178), were separately dissolved in 10 mL of normal saline at room temperature. Each of the five 1000 μg/10 mL samples was stored in sealed, aluminum-wrapped 10 mL vials to prevent exposure to light. No buffers were added to the solutions. The pH of the solutions, measured by a Beckman 40 pH meter (Beckman Instruments, Fullerton, Calif.): Cyanocobalamin=5.75, DTPA=3.78; cyano, methyl and adenosylcobalamin-DTPA analogues were 5.75, 6.10, and 6.19, respectively.
To assess in vitro binding to Intrinsic Factor (IF) and Transcobalamins (TC), the intrinsic factor blocking antibody (IFBA) and Unsaturated vitamin B12 Binding Capacity (UBBC) assays were performed with serum randomly obtained from five patients being evaluated for pernicious anemia at the Mayo Clinic. The IFBA and UBBC assays were first performed for clinical purposes as previously described by V. F. Fairbanks et al., Mayo Clin. Proc., 58, 203 (1983); Intrinsic Factor Blocking Antibody (^57Co) Radioassay-Package insert, Diagnostic Products Corp.; D. Grossowicz et al., Proc. Exp. Biol., 109, 604 (1962) and C. Gottlieb et al., Blood, 25, 6 (1965).
Next, the serum from the same five patients underwent modified IFBA and UBBC assays. Specifically, 1 μL of the five previously described solutions was separately incubated with purified IF or serum, to potentially saturate all IF and TC-binding sites.
After incubation for 20 minutes at room temperature and for another 20 minutes at 4° C., 500 μl of the stock (1000 μg/l) Cobalt-57-cyanocobalamin (Mallinckrodt Medical, Inc., St. Louis, Mo. 63134) solution was added and the usual IFBA and UBBC protocols were then followed. All supernatant activity was counted for four minutes on a gamma counter (Micromedix 10/20, Huntsville, Ala. 35805).
By using the counts of the Clinical run divided into the counts of the five solutions, the efficacy of binding to intrinsic factor can be estimated. The averaged percent binding of the five solutions to IF was: cyanocobalamin=92.5%; methyl-cobalamin-b-(4-aminobutyl)-amide-DTPA=63.2%; cyanocobalamin-b-(4-aminobutyl)-amide-DTPA=52.9%; adenosylcobalamin-b-(4-aminobutyl)-amide-DTPA=41.0% and 0.8% for DTPA.

[2] = pH of 1000 μg/10 mL solutions in normal saline; format: physicochemical; conditions: 1000 μg in 10 mL normal saline, room temperature, no buffers
Procedure: as §1

transcobalamin proteins [3] = assay: modified Unsaturated vitamin B12 Binding Capacity (UBBC) assay with patient serum; set-up: species or system human; conditions: non-labeled solution (1000 μg/10 mL saline, 1 μL) preincubated with serum of five patients, then Co-57-cyanocobalamin
Procedure: Louis, Mo. 63178), were separately dissolved in 10 mL of normal saline at room temperature. […] No buffers were added to the solutions. The pH of the solutions, measured by a Beckman 40 pH meter (Beckman Instruments, Fullerton, Calif.): […] To assess in vitro binding to Intrinsic Factor (IF) and Transcobalamins (TC), the intrinsic factor blocking antibody (IFBA) and Unsaturated vitamin B12 Binding Capacity (UBBC) assays were performed with serum randomly obtained from five patients being evaluated for pernicious anemia at the Mayo Clinic. The IFBA and UBBC assays were first performed for clinical purposes as previously described by V. F. Fairbanks et al., Mayo Clin. Proc., 58, 203 (1983); Intrinsic Factor Blocking Antibody (^57Co) Radioassay-Package insert, Diagnostic Products Corp.; D. Grossowicz et al., Proc. Exp. Biol., 109, 604 (1962) and C. Gottlieb et al., Blood, 25, 6 (1965). Next, the serum from the same five patients underwent modified IFBA and UBBC assays. Specifically, 1 μL of the five previously described solutions was separately incubated with purified IF or serum, to potentially saturate all IF and TC-binding sites. […] Louis, Mo. 63134) solution was added and the usual IFBA and UBBC protocols were then followed. All supernatant activity was counted for four minutes on a gamma counter (Micromedix 10/20, Huntsville, Ala. 35805). […] Comparison of cyanocobalamin-DTPA to cyanocobalamin was 66.4% (Transcobalamin II receptor imaging via radiolabeled diethylene-triaminepentaacetate cobalamin analogs, J. Nucl. Med., 38, 717-723 (1997); also described in U.S. Pat. […] A. Collins, […], Tumor Imaging Indium-111-labeled DTPA-adenosylcobalamin, Mayo Clinic Proceedings, 1999; 74; 687-691; Biodistribution of Radiolabeled Adenosylcobalamin in Humans, Review of 30 patents submitted to Mayo Clinic Proceedings). This should improve tumor-to-background ratio, which can be evaluated in murine tumor models. Attachment of either the adenosyl and methyl group as the beta ligand should improve the biological activity as it did with the cyanocobalamin mono-DTPA compound (Transcobalamin II receptor imaging via radiolabeled diethylene-triaminepentaacetate cobalamin analogs, J. Nucl. Med., 38, 717-723 (1997); also described in U.S. Pat.

transcobalamin proteins [4] = conditions: relative to cyanocobalamin; J. Nucl. Med. 38, 717-723 (1997), U.S. Pat. No. 5,739,313; cited from earlier work

COc1cccc2c1C(=O)c1c(O)c3c(c(O)c1C2=O)C[C@@](O)(C(C)=O)C[C@@H]3O[C@H]1C[C@H](NC(=O)[C@@H](N)CC(C)C)C(O)[C@H](C)O1 (stereo partly drawn) [N-(L-leucyl) daunorubicin]
hydrolysis in vivo to regenerate daunorubicin [1]: hydrolyzed in vivo to regenerate daunorubicin

cyanocobalamin
binding to IF in the IFBA assay (in words) (Intrinsic Factor (IF)): competitively inhibit Co-57 cyanocobalamin from binding to intrinsic factor
averaged percent binding to IF (Intrinsic Factor (IF)): 92.5%
pH of the solution [2]: 5.75
averaged percent binding to the transcobalamin proteins (transcobalamin proteins [3]): 100%

COc1cccc2c1C(=O)c1c(O)c3c(c(O)c1C2=O)CC(O)(C(C)=O)CC3OC1CC(NC(=O)C(N)CC(C)C)C(O)C(C)O1 (single isomer, unassigned) [D isomer]
hydrolysis in vivo to regenerate daunorubicin [1]: not

Cyanocobalamin-b-(4-aminobutyl)amide DTPA
averaged percent binding to IF (Intrinsic Factor (IF)): 52.9%
pH of the solution [2]: 5.75
averaged percent binding to the transcobalamin proteins (transcobalamin proteins [3]): 66.4%
in vitro UBBC comparison to cyanocobalamin (transcobalamin proteins [4]): 66.4%

Methylcobalamin-b-(4-aminobutyl)amide DTPA
averaged percent binding to IF (Intrinsic Factor (IF)): 63.2%
pH of the solution [2]: 6.10
averaged percent binding to the transcobalamin proteins (transcobalamin proteins [3]): 94.0%

Adenosylcobalamin-b-(4-aminobutyl)amide DTPA
averaged percent binding to IF (Intrinsic Factor (IF)): 41.0%
pH of the solution [2]: 6.19
averaged percent binding to the transcobalamin proteins (transcobalamin proteins [3]): 90.4%

O=C(O)CN(CCN(CC(=O)O)CC(=O)O)CCN(CC(=O)O)CC(=O)O [DTPA, diethylenetriaminepentaacetic acid]
binding to IF in the IFBA assay (in words) (Intrinsic Factor (IF)): does not significantly bind to IF
averaged percent binding to IF (Intrinsic Factor (IF)): 0.8%
pH of the solution [2]: 3.78
averaged percent binding to the transcobalamin proteins (transcobalamin proteins [3]): 3.6%
